Measurements: US20070197590A1, “SUBSTITUTED DIPIPERIDINE CCR2 ANTAGONISTS” (priority 2006, published 2007)
Read-outs that look alike come from different tables or passages of the source.

Tests used:
CCR2 = target: T1, CCR2 (Homo sapiens, UniProt P41597); assay: MCP-1 Receptor Binding Assay in THP-1 Cells; details: for IC50: THP-1 cells, 0.5 nM 125I labeled MCP-1, 2 hours at 30° C., read-out: Inhibition of MCP-1 Binding IC50; for inhibition at 25 µM: test concentration of 25 μM, given where an IC50 value was not obtained, read-out: Inhibition of MCP-1 Binding, percent inhibition
T1 construct: host or cells: THP-1 cells
T1 sequence (P41597 1-360 isoform P41597-2): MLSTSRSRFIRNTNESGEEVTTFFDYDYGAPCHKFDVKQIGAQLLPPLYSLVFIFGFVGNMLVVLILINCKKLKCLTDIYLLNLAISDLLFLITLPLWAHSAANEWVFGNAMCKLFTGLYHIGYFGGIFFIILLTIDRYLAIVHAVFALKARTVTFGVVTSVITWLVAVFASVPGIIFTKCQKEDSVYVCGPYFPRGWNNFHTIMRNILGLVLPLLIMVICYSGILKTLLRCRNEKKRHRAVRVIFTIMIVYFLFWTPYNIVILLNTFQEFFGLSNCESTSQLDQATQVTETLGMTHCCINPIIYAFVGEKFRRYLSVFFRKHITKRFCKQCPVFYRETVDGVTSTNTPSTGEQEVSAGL
Experimental: THP-1 cells were obtained from American Type Culture Collection (Manassas, Va., USA). The THP-1 cells were grown in RPMI-1640 supplemented with 10% fetal bovine serum in a humidified 5% CO2 atmosphere at 37° C. The cell density was maintained […].
THP-1 cells were incubated with 0.5 nM ^125, labeled MCP-1 (Perkin-Elmer Life Sciences, Inc. Boston, Mass.) in the presence of varying concentrations of either unlabeled MCP-1 (R & D Systems, Minneapolis, Minn.) or test compound for 2 hours at 30° C. in a 96 well plate. Cells were then harvested onto a filter plate, dried, and 20 μL of Microscint 20 was added to each well. Plates were counted in a TopCount NXT, Microplate Scintillation & Luminescence Counter (Perkin-Elmer Life Sciences, Inc. Boston, Mass.). Blank values (buffer only) were subtracted from all values and drug treated values were compared to vehicle treated values. 1 μM cold MCP-1 was used for nonspecific binding.
Table 1 lists IC50 values for inhibition of MCP-1 binding to CCR2 obtained for test compounds of the invention.

[1] = system: MCP-1 induced calcium ion influx in THP-1 cells; assay: MCP-1 Induced Calcium Mobilization in THP-1 Cells; type: cell-based; details: for inhibition at 25 µM: THP-1, test concentration of 25 μM, given where an IC50 value was not obtained, read-out: Inhibition of MCP-1 Induced Calcium Ion Influx, percent inhibition; for IC50: 0.2 μM MCP-1, FLIPR, read-out: Inhibition of MCP-1 Induced Calcium Ion Influx IC50
Experimental: THP-1 cells were plated at a density of 8×10^5 cells/mL (100 μL/well) into poly-D lysine coated clear bottom, black 96 well plates. The cells were loaded with 5 μM fluo-3 for 45 minutes. The fluo-3 washed off and cells were incubated with varying concentrations of test compound for 15 minutes. The change in calcium ion concentration upon addition of 0.2 μM MCP-1 was determined using FLIPR and compared to vehicle.
Table 2 lists IC50 values for inhibition of MCP-1 induced influx of calcium ions.

[2] = Homo sapiens, THP-1, THP-1 cells

| Structure (SMILES) | IC50 (CCR2) [nM] | IC50 [1, 2] [nM] | further results |
| --- | --- | --- | --- |
| COc1ccc(C2CCN(CC(O)C3(O)CCN(C(=O)/C=C/c4ccsc4)CC3)CC2)cc1 (stereo not drawn) [Compound 113] | 1600 | 4900 |  |
| COc1ccc(C2CCN(CC(O)C3CCN(C(=S)Nc4cccc(C(F)(F)F)c4)CC3)CC2)cc1 (stereo not drawn) [Compound 97, 4-{1-hydroxy-2-[4-(4-methoxy-phenyl)-piperidin-1-yl]-ethyl}-piperidine-1-carbothioic acid (3-trifluoromethyl-phenyl)-amide] |  |  | IC50 ([1]; THP-1 cells): 12900 nM |
| COc1ccc(C2CCN(CC(O)C3CCN(C(=S)Nc4cccc(C(F)(F)F)c4)CC3)CC2)cc1 (stereo not drawn) [Compound 105, 4-{1-hydroxy-2-[4-(4-methoxy-phenyl)-piperidin-1-yl]-ethyl}-piperidine-1-carbothioic acid (3-trifluoromethyl-phenyl)-amide] | 540 |  | IC50 ([1]; THP-1 cells): 3400 nM |
| COc1ccc(C2CCN(CC(CO)C3CCN(C(=O)Nc4ccc(Cl)c(Cl)c4)CC3)CC2)cc1 (stereo not drawn) [Compound 44, 4-{1-hydroxymethyl-2-[4-(4-methoxy-phenyl)-piperidin-1-yl]-ethyl}-piperidine-1-carboxylic acid (3,4-dichloro-phenyl)-amide] | 1800 | 720 |  |
| COc1ccc(C2CCN(CC(O)C3(O)CCN(C(=S)Nc4ccc(Cl)c(Cl)c4)CC3)CC2)cc1 (stereo not drawn) [Compound 117, 4-hydroxy-4-{1-hydroxy-2-[4-(4-methoxy-phenyl)-piperidin-1-yl]-ethyl}-piperidine-1-carbothioic acid (3,4-dichloro-phenyl)-amide] | 1300 | 1200 |  |
| O=C(/C=C/c1cc(F)c(F)c(F)c1)N1CCC(O)(C(O)CN2CCC(O)(c3ccc(F)cc3)CC2)CC1 (stereo not drawn) [Compound 152] | 3100 |  | inhibition at 25 µM ([1]; Homo sapiens): 43% |
| COc1cccc(/C=C/C(=O)N2CCC(O)(C(O)CN3CCC(c4c[nH]c5ccc(N6CCOCC6)cc45)CC3)CC2)c1 (stereo not drawn) [Compound 177] |  |  | inhibition at 25 µM (CCR2): 53%; inhibition at 25 µM ([1]; Homo sapiens): 27% |
| O=C(/C=C/c1cc(F)c(F)cc1F)N1CCC(O)(C(O)CN2CCC(c3c[nH]c4ccc(N5CCOCC5)cc34)CC2)CC1 (stereo not drawn) [Compound 175] |  |  | inhibition at 25 µM (CCR2): 70%; inhibition at 25 µM ([1]; Homo sapiens): 24% |
| COc1ccc(C2CCN(CC(O)C3CCN(C(=S)Nc4ccc(Cl)c(Cl)c4)CC3)CC2)cc1 (stereo not drawn) [Compound 98, 4-{1-hydroxy-2-[4-(4-methoxy-phenyl)-piperidin-1-yl]-ethyl}-piperidine-1-carbothioic acid (3,4-dichloro-phenyl)-amide] |  | 800 |  |
| COc1ccc(C2CCN(CC(O)C3CCN(C(=S)Nc4ccc(Br)c(F)c4)CC3)CC2)cc1 (stereo not drawn) [Compound 99, 4-{1-hydroxy-2-[4-(4-methoxy-phenyl)-piperidin-1-yl]-ethyl}-piperidine-1-carbothioic acid (4-bromo-3-fluoro-phenyl)-amide] |  | 3500 |  |
| COc1ccc(C2CCN(CC(O)C3CCN(C(=S)Nc4cccc(OC)c4)CC3)CC2)cc1 (stereo not drawn) [Compound 96, 4-{1-hydroxy-2-[4-(4-methoxy-phenyl)-piperidin-1-yl]-ethyl}-piperidine-1-carbothioic acid (3-methoxy-phenyl)-amide] |  |  | IC50 ([1]; THP-1 cells): 13100 nM |
| CCOC(=O)C(CC1CCN(C(=O)C=Cc2cc(F)cc(F)c2)CC1)N1CCC(c2c[nH]c3ccccc23)CC1 (stereo not drawn) [Compound 51, 3-{1-[3-(3,5-difluoro-phenyl)-acryloyl]-piperidin-4-yl}-2-[4-(1H-indol-3-yl)-piperidin-1-yl]-propionic acid ethyl ester] |  |  | inhibition at 25 µM (CCR2): 48% |
| CCOC(=O)C(CC1CCN(C(=O)C=Cc2cccc(C)c2)CC1)N1CCC(c2c[nH]c3ccccc23)CC1 (stereo not drawn) [Compound 48, 2-[4-(1H-indol-3-yl)-piperidin-1-yl]-3-[1-(3-m-tolyl-acryloyl)-piperidin-4-yl]-propionic acid ethyl ester] |  |  | inhibition at 25 µM (CCR2): 48% |
| OC(CN1CCC(c2c[nH]c3ccc(N4CCOCC4)cc23)CC1)C1(O)CCN(C(=S)Nc2cc(F)cc(F)c2)CC1 (stereo not drawn) [Compound 183, 4-hydroxy-4-{1-hydroxy-2-[4-(5-morpholin-4-yl-1H-indol-3-yl)-piperidin-1-yl]-ethyl}-piperidine-1-carbothioic acid (3,5-difluoro-phenyl)-amide] |  |  | inhibition at 25 µM (CCR2): 47% |
| COc1ccc(C2CCN(CC(O)C3(O)CCN(C(=O)/C=C/c4ccc(Cl)cc4)CC3)CC2)cc1 (stereo not drawn) [Compound 92] | 480 |  |  |
| O=C(Nc1ccc(F)c(F)c1)N1CCC(C(O)CN2CCC(c3cc[nH]n3)CC2)CC1 (stereo not drawn) [Compound 37, 4-{1-hydroxy-2-[4-(1H-pyrazol-3-yl)-piperidin-1-yl]-ethyl}-piperidine-1-carboxylic acid (3,4-difluoro-phenyl)-amide] | 8600 |  |  |
| COc1ccc(C2CCN(CC(O)C3CCN(C(=S)Nc4cc(OC)cc(OC)c4)CC3)CC2)cc1 (stereo not drawn) [Compound 111, 4-{1-hydroxy-2-[4-(4-methoxy-phenyl)-piperidin-1-yl]-ethyl}-piperidine-1-carbothioic acid (3,5-dimethoxy-phenyl)-amide] | 2600 |  |  |
| COc1ccc(C2CCN(CC(O)C3CCN(C(=O)Nc4cc(Cl)c(Cl)cc4F)CC3)CC2)cc1 (stereo not drawn) [Compound 90, 4-{1-hydroxy-2-[4-(4-methoxy-phenyl)-piperidin-1-yl]-ethyl}-piperidine-1-carboxylic acid (4,5-dichloro-2-fluoro-phenyl)-amide] |  |  | inhibition at 25 µM (CCR2): 87% |
| COc1ccc(C2CCN(CC(C(=O)O)C3CCN(C(=O)C=Cc4cc(F)c(F)c(F)c4)CC3)CC2)cc1 (stereo not drawn) [Compound 39, 3-[4-(4-methoxy-phenyl)-piperidin-1-yl]-2-{1-[3-(3,4,5-trifluoro-phenyl)-acryloyl]-piperidin-4-yl}-propionic acid] |  |  | inhibition at 25 µM (CCR2): 52% |
| CCOC(=O)C(CN1CCC(c2ccc(OC)cc2)CC1)C1CCN(C(=O)C=Cc2cc(F)c(F)c(F)c2)CC1 (stereo not drawn) [Compound 38, 3-[4-(4-methoxy-phenyl)-piperidin-1-yl]-2-{1-[3-(3,4,5-trifluoro-phenyl)-acryloyl]-piperidin-4-yl}-propionic acid ethyl ester] | 4700 |  |  |

More lines, main results first:

| IC50 (CCR2) [nM] | IC50 [1, 2] [nM] | Structure (SMILES) | further results |
| --- | --- | --- | --- |
| 12800 |  | O=C(/C=C/c1ccc(F)cc1)N1CCC(O)(C(O)CN2CCC(c3c[nH]c4ccc(N5CCOCC5)cc34)CC2)CC1 (stereo not drawn) [Compound 171] | inhibition at 25 µM ([1]; Homo sapiens): 22% |
| 350 | 2100 | O=C(/C=C/c1ccc(Cl)c(Cl)c1)N1CCC(O)(C(O)CN2CCC(c3c[nH]c4ccc(F)cc34)CC2)CC1 (stereo not drawn) [Compound 158] |  |
| 1300 | 2600 | O=C(Nc1ccc(F)c(F)c1)N1CCC(O)(C(O)CN2CCC(c3c[nH]c4ccccc34)CC2)CC1 (stereo not drawn) [Compound 82, 4-hydroxy-4-{1-hydroxy-2-[4-(1H-indol-3-yl)-piperidin-1-yl]-ethyl}-piperidine-1-carboxylic acid (3,4-difluoro-phenyl)-amide] |  |
| 910 |  | COc1ccc(C2CCN(CC(O)C3(O)CCN(C(=O)Nc4cc(F)cc(F)c4)CC3)CC2)cc1 (stereo not drawn) [Compound 115, 4-hydroxy-4-{1-hydroxy-2-[4-(4-methoxy-phenyl)-piperidin-1-yl]-ethyl}-piperidine-1-carboxylic acid (3,5-difluoro-phenyl)-amide] | inhibition at 25 µM ([1]; Homo sapiens): 57% |
| 500 | 8000 | O=C(/C=C/c1ccc(F)c(F)c1)N1CCC(O)(C(O)CN2CCC(c3ccc(F)cc3)CC2)CC1 (stereo not drawn) [Compound 129] |  |
| 470 | 3300 | O=C(/C=C/c1cc(F)c(F)c(F)c1)N1CCC(O)(C(O)CN2CCC(c3nc4ccccc4[nH]3)CC2)CC1 (stereo not drawn) [Compound 87] |  |
| 8700 |  | O=C(/C=C/c1cc(C(F)(F)F)cc(C(F)(F)F)c1)N1CCC(O)(C(O)CN2CCC(c3c[nH]c4ccc(N5CCOCC5)cc34)CC2)CC1 (stereo not drawn) [Compound 150] |  |
| 700 |  | O=C(/C=C/c1cc(C(F)(F)F)cc(C(F)(F)F)c1)N1CCC(O)(C(O)CN2CCC(c3c[nH]c4ccccc34)CC2)CC1 (stereo not drawn) [Compound 72] |  |
| 1300 |  | O=C(/C=C/c1cc(F)cc(F)c1)N1CCC(O)(C(O)CN2CCC(c3c[nH]c4ccc(N5CCOCC5)cc34)CC2)CC1 (stereo not drawn) [Compound 149] |  |
